In test [1] the test system is NCI-H358 cells (express KRas G12C), Phospho-ERK. The test can be described thus: Cellular inhibition of KRas G12C: Phospho-ERK in NCI-H358 cells. As to conditions: Homo sapiens, pERK(Thr202/Tyr204) normalized with GAPDH, NCI-H358 cells, 3 hours, read-out: IC50. Format: cell-based. Summed up:
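IC50 derived by 4-parameter fit of GAPDH-normalized pERK(Thr202/Tyr204) signal, as percent of DMSO control. Signal came from in-cell immunodetection with infrared secondaries after 3 h compound exposure of KRas G12C NCI-H358 cells at 0.5% DMSO.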

In a further test the target is KRas G12C (Homo sapiens, UniProt P01116, C118S/C51S/C80L/G12C). The test can be described thus: KRas G12C Modification Assay (LCMS detection of covalent adduct). As to conditions: normalized percent of control; tested at 5 μM concentration for 3 hours. The class given is binding. The essentials: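 Covalent modification was read by reverse-phase LC/MS of intact protein after compound exposure, each reaction stopped at its time point with 25 mM acetic acid. Unmodified-protein signal, taken as percent of total, was normalised to untreated protein and reported as POC.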

Where two headings read alike, the source gives them in different places.

The values that follow come from patent US10125134B2 (Mirati Therapeutics, Inc., priority 2016, dated 2018).

The term IC50 denotes the midpoint of a concentration-inhibition curve.

Consider `C=CC(=O)N1CCN(c2nc(O[C@H](C)CN(C)C)nc3c2CCN(c2cccc4ccccc24)C3)CC1` [Example 68, (R)-1-(4-(2-((1-(dimethylamino)propan-2-yl)oxy)-7-(naphthalen-1-yl)-5,6,7,8-tetrahydropyrido[3,4-d]pyrimidin-4-yl)piperazin-1-yl)prop-2-en-1-one], for which the IC50 in test [1] (NCI-H358, 3 h) was over 1000 nM. For the same compound, the POC entry on KRas G12C was “A (“A”≤25% POC)”.
Take `C=CC(=O)N1CCN(c2ncnc3c2CCN(c2cncc4ccccc24)C3)CC1` [Example 69, 1-(4-(7-(isoquinolin-4-yl)-5,6,7,8-tetrahydropyrido[3,4-d]pyrimidin-4-yl)piperazin-1-yl)prop-2-en-1-one]: the IC50 in test [1] was over 1000 nM. Also, the POC entry on KRas G12C is on record as “A (“A”≤25% POC)”.
For `C=CC(=O)N1CCN(c2nc(OC(C)CNC)nc3c2CCN(c2cc(O)cc4ccccc24)C3)CC1` (centres unmarked) [Example 70, 1-(4-(7-(3-hydroxynaphthalen-1-yl)-2-((1-(methylamino)propan-2-yl)oxy)-5,6,7,8-tetrahydropyrido[3,4-d]pyrimidin-4-yl)piperazin-1-yl)prop-2-en-1-one], in test [1] (NCI-H358, 3 h), the IC50 is over 1000 nM. Also, the POC result at KRas G12C is reported as “C (“C”>50% POC)”.
As for `C=CC(=O)N1CCN(c2ncnc3c2CCN(C(CO)c2ccccc2)C3)CC1` (centres unmarked) [Example 71, 1-(4-(7-(2-hydroxy-1-phenylethyl)-5,6,7,8-tetrahydropyrido[3,4-d]pyrimidin-4-yl)piperazin-1-yl)prop-2-en-1-one], the IC50 in test [1] was over 1000 nM. The POC result on KRas G12C was “A (“A”≤25% POC)”.
For the compound `C=CC(=O)N1CCN(c2nc(OCC3CCCN(C)C3)nc3c2CCN(c2cc(O)cc4ccccc24)C3)CC1` (centres unmarked) [Example 72, 1-(4-(7-(3-hydroxynaphthalen-1-yl)-2-((1-methylpiperidin-3-yl)methoxy)-5,6,7,8-tetrahydropyrido[3,4-d]pyrimidin-4-yl)piperazin-1-yl)prop-2-en-1-one], the IC50 in test [1] (NCI-H358, 3 h) is 0.1 to 1000 nM. Moreover, the POC entry on KRas G12C was “C (“C”>50% POC)”.
The like results for `C=CC(=O)N1CCN(c2nc(OCC(C)N(C)C)nc3c2CCN(c2cc(O)cc4ccccc24)C3)CC1` (centres unmarked) [Example 73, 1-(4-(2-(2-(dimethylamino)propoxy)-7-(3-hydroxynaphthalen-1-yl)-5,6,7,8-tetrahydropyrido[3,4-d]pyrimidin-4-yl)piperazin-1-yl)prop-2-en-1-one] were, in that order, over 1000 nM and “C (“C”>50% POC)”.
As for `C=CC(=O)N1CCN(c2nc(OCCCN3CCOCC3)nc3c2CCN(c2cc(O)cc4ccccc24)C3)CC1` [Example 74, 1-(4-(7-(3-hydroxynaphthalen-1-yl)-2-(3-morpholinopropoxy)-5,6,7,8-tetrahydropyrido[3,4-d]pyrimidin-4-yl)piperazin-1-yl)prop-2-en-1-one], the IC50 in test [1] (NCI-H358, 3 h) lay within 0.1 to 1000 nM. Moreover, the POC entry on KRas G12C is listed as “C (“C”>50% POC)”.
The like results for `C=CC(=O)N1CCN(c2nc(O[C@H](C)CN3CCCCC3)nc3c2CCN(c2cc(O)cc4ccccc24)C3)CC1` [Example 75, (R)-1-(4-(7-(3-hydroxynaphthalen-1-yl)-2-((1-(piperidin-1-yl)propan-2-yl)oxy)-5,6,7,8-tetrahydropyrido[3,4-d]pyrimidin-4-yl)piperazin-1-yl)prop-2-en-1-one] were, in that order, 0.1 to 1000 nM and “C (“C”>50% POC)”.
Regarding `C=CC(=O)N1CCN(c2nc(O[C@H](C)CN(C)C)nc3c2CCN(c2cc(O)cc(Cl)c2C(C)C)C3)CC1` [Example 76, (R)-1-(4-(7-(3-chloro-5-hydroxy-2-isopropylphenyl)-2-((1-(dimethylamino)propan-2-yl)oxy)-5,6,7,8-tetrahydropyrido[3,4-d]pyrimidin-4-yl)piperazin-1-yl)prop-2-en-1-one], the IC50 in test [1] is over 1000 nM. Also, on KRas G12C, the POC entry is given as “C (“C”>50% POC)”.
With `C=CC(=O)N1CCN(c2nc(OCCN3C[C@@H]4CC[C@H]3C4)nc3c2CCN(c2cc(O)cc4ccccc24)C3)CC1` [Example 77, 1-(4-(2-(2-((1 S,4R)-2-azabicyclo[2.2.1]heptan-2-yl)ethoxy)-7-(3-hydroxynaphthalen-1-yl)-5,6,7,8-tetrahydropyrido[3,4-d]pyrimidin-4-yl)piperazin-1-yl)prop-2-en-1-one], the IC50 in test [1] (NCI-H358, 3 h) was in the range of 0.1 to 1000 nM. Further, the POC entry on KRas G12C is “C (“C”>50% POC)”.
For `C=CC(=O)N1CCN(c2nc(O[C@H](C)CN(C)C)nc3c2CCN(c2cc(O)ccc2OC(F)(F)F)C3)CC1` [Example 78, (R)-1-(4-(2-((1-(dimethylamino)propan-2-yl)oxy)-7-(5-hydroxy-2-(trifluoromethoxy)phenyl)-5,6,7,8-tetrahydropyrido[3,4-d]pyrimidin-4-yl)piperazin-1-yl)prop-2-en-1-one], the IC50 in test [1] is over 1000 nM. For the same compound, the POC result at KRas G12C was “C (“C”>50% POC)”.
In the same order, the values of `C=CC(=O)N1CCN(c2nc(O[C@H](C)CN(C)C)nc3c2CCN(c2cc(O)ccc2C(F)(F)F)C3)CC1` [Example 79, (R)-1-(4-(2-((1-(dimethylamino)propan-2-yl)oxy)-7-(5-hydroxy-2-(trifluoromethyl)phenyl)-5,6,7,8-tetrahydropyrido[3,4-d]pyrimidin-4-yl)piperazin-1-yl)prop-2-en-1-one] are over 1000 nM and “A (“A”≤25% POC)”.
As to `C=CC(=O)N1CCN(c2nc(OCC3CN(C)CCN3)nc3c2CCN(c2cc(O)cc4ccccc24)C3)CC1` (centres unmarked) [Example 80, 1-(4-(7-(3-hydroxynaphthalen-1-yl)-2-((4-methylpiperazin-2-yl)methoxy)-5,6,7,8-tetrahydropyrido[3,4-d]pyrimidin-4-yl)piperazin-1-yl)prop-2-en-1-one], the IC50 in test [1] (NCI-H358, 3 h) was over 1000 nM. Besides, on KRas G12C, the POC entry was “C (“C”>50% POC)”.
In the same order, the values of `C=CC(=O)N1CCN(c2nc(OCCN3CCC(C#N)CC3)nc3c2CCN(c2cc(O)cc4ccccc24)C3)CC1` [Example 81, 1-(2-((4-(4-acryloylpiperazin-1-yl)-7-(3-hydroxynaphthalen-1-yl)-5,6,7,8-tetrahydropyrido[3,4-d]pyrimidin-2-yl)oxy)ethyl)piperidine-4-carbonitrile] are over 1000 nM and “C (“C”>50% POC)”.
The like results for `C=CC(=O)N1CCN(c2nc(OCCCN3CCN(C)CC3)nc3c2CCN(c2cc(O)cc4ccccc24)C3)CC1` [Example 82, 1-(4-(7-(3-hydroxynaphthalen-1-yl)-2-(3-(4-methylpiperazin-1-yl)propoxy)-5,6,7,8-tetrahydropyrido[3,4-d]pyrimidin-4-yl)piperazin-1-yl)prop-2-en-1-one] were, in that order, 0.1 to 1000 nM and “C (“C”>50% POC)”.
The like results for `C=CC(=O)N1CCN(c2nc(OCCN(C)CCO)nc3c2CCN(c2cc(O)cc4ccccc24)C3)CC1` [Example 83, 1-(4-(2-(2-((2-hydroxyethyl)(methyl)amino)ethoxy)-7-(3-hydroxynaphthalen-1-yl)-5,6,7,8-tetrahydropyrido[3,4-d]pyrimidin-4-yl)piperazin-1-yl)prop-2-en-1-one] were, in that order, over 1000 nM and “C (“C”>50% POC)”.
For `C=CC(=O)N1CCN(c2nc(O[C@H](C)CN(C)C)nc3c2CCN(c2c(O)ccc(C)c2F)C3)CC1` [Example 84, (R)-1-(4-(2-((1-(dimethylamino)propan-2-yl)oxy)-7-(2-fluoro-6-hydroxy-3-methylphenyl)-5,6,7,8-tetrahydropyrido[3,4-d]pyrimidin-4-yl)piperazin-1-yl)prop-2-en-1-one], the IC50 in test [1] is over 1000 nM. Further, the POC entry on KRas G12C is “A (“A”≤25% POC)”.
Turning to `C=CC(=O)N1CCN(c2nc(OCCN3CCCC3)nc3c2CCN(c2cc(O)cc4ccccc24)C3)CC1` [Example 85, 1-(4-(7-(3-hydroxynaphthalen-1-yl)-2-(2-(pyrrolidin-1-yl)ethoxy)-5,6,7,8-tetrahydropyrido[3,4-d]pyrimidin-4-yl)piperazin-1-yl)prop-2-en-1-one], the IC50 in test [1] (NCI-H358, 3 h) was over 1000 nM. Further, the POC result on KRas G12C is listed as “C (“C”>50% POC)”.
For `C=CC(=O)N1CCN(c2nc(O[C@H](C)CN(C)C)nc3c2CCN(c2cc(OC(F)(F)F)ccc2O)C3)CC1` [Example 86, (R)-1-(4-(2-((1-(dimethylamino)propan-2-yl)oxy)-7-(2-hydroxy-5-(trifluoromethoxy)phenyl)-5,6,7,8-tetrahydropyrido[3,4-d]pyrimidin-4-yl)piperazin-1-yl)prop-2-en-1-one], the concentration for half-maximal inhibition (IC50) in test [1] was over 1000 nM. In addition, the POC entry at KRas G12C was “A (“A”≤25% POC)”.
Turning to `C=CC(=O)N1CCN(c2nc(O[C@H](C)CN(C)C)nc3c2CCN(c2c(C)ccc(F)c2O)C3)CC1` [Example 87, (R)-1-(4-(2-((1-(dimethylamino)propan-2-yl)oxy)-7-(3-fluoro-2-hydroxy-6-methylphenyl)-5,6,7,8-tetrahydropyrido[3,4-d]pyrimidin-4-yl)piperazin-1-yl)prop-2-en-1-one], the IC50 in test [1] is over 1000 nM. Also, the POC entry at KRas G12C is recorded as “A (“A”≤25% POC)”.
For the compound `C=CC(=O)N1CCN(c2nc(OCCN3CCCC[C@@H]3C)nc3c2CCN(c2cc(O)cc4ccccc24)C3)CC1` [Example 88, (S)-1-(4-(7-(3-hydroxynaphthalen-1-yl)-2-(2-(2-methylpiperidin-1-yl)ethoxy)-5,6,7,8-tetrahydropyrido[3,4-d]pyrimidin-4-yl)piperazin-1-yl)prop-2-en-1-one], the 50% inhibitory concentration (IC50) in test [1] (NCI-H358, 3 h) was in the range of 0.1 to 1000 nM. Further, at KRas G12C, the POC result is recorded as “C (“C”>50% POC)”.
The like results for `C=CC(=O)N1CCN(c2nc(OCC3CCN(C)C3)nc3c2CCN(c2cc(O)cc4ccccc24)C3)CC1` (stereo not drawn) [Example 89, 1-(4-(7-(3-hydroxynaphthalen-1-yl)-2-((l-methylpyrrolidin-3-yl)methoxy)-5,6,7,8-tetrahydropyrido[3,4-d]pyrimidin-4-yl)piperazin-1-yl)prop-2-en-1-one] were, in that order, 0.1 to 1000 nM and “C (“C”>50% POC)”.
